Test results from ChEMBL document CHEMBL1201862, “PubChem BioAssay data set” (2004).
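The compound was tested at five concentrations on cells cultured in 96-well plates, with a 48-hour exposure period. GI50: concentration for 50% inhibition of growth.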 Calls of active or inactive are those of the source. Cut-off read from the data, not from the text of the source: active = GI50 up to about 1.1 µM and inactive = higher.

Key:
Test in all cases: NCI-60 cell line screen, 48 h
CAKI-1 = test system: CAKI-1
CCRF-CEM = test system: CCRF-CEM
COLO 205 = test system: COLO 205
HCT-15 = test system: HCT-15
K562 = test system: K562
KM12 = test system: KM12
LOX IMVI = test system: LOX IMVI
MDA-MB-231 = test system: MDA-MB-231
MDA-MB-435 = test system: MDA-MB-435
Malme-3M = test system: Malme-3M
NCI-H23 = test system: NCI-H23
NCI-H522 = test system: NCI-H522
OVCAR-5 = test system: OVCAR-5
OVCAR-8 = test system: OVCAR-8
RPMI-8226 = test system: RPMI-8226
SN12C = test system: SN12C
U-251 = test system: U-251
UACC-257 = test system: UACC-257
SK-OV-3 = test system: SK-OV-3

Row | SMILES | GI50 (CAKI-1) | GI50 (CCRF-CEM) | GI50 (COLO 205) | GI50 (HCT-15) | GI50 (K562) | GI50 (KM12) | GI50 (LOX IMVI) | GI50 (MDA-MB-231) | GI50 (MDA-MB-435) | GI50 (Malme-3M) | GI50 (NCI-H23) | GI50 (NCI-H522) | GI50 (OVCAR-5) | GI50 (OVCAR-8) | GI50 (RPMI-8226) | GI50 (SN12C) | GI50 (U-251) | GI50 (UACC-257) | GI50 (SK-OV-3)
1 | CN(C)Cc1cc(C(=O)/C=C/c2ccc(Br)cc2)cc(CN(C)C)c1O | 2.28 µM (inactive) | 3.24 µM (inactive) | 1.67 µM (inactive) | 11.8 µM | 2.43 µM (inactive) | 2.16 µM (inactive) | 1.99 µM (inactive) | 3.21 µM (inactive) | 14.3 µM (inactive) | 16.6 µM (inactive) | 15.7 µM (inactive) | 3.93 µM (inactive) | 19.3 µM (inactive) | 4.03 µM (inactive) | 4.74 µM (inactive) | 2.84 µM (inactive) | 12.9 µM (inactive) | 6.53 µM (inactive) | –
2 | O=c1cccc2n1CC1CNC[C@H]2C1 [CYTISINICLINE] | > 100 µM (inactive) | > 100 µM (inactive) | > 100 µM (inactive) | > 100 µM | > 100 µM (inactive) | > 100 µM (inactive) | > 100 µM (inactive) | > 100 µM (inactive) | > 100 µM (inactive) | > 100 µM (inactive) | > 100 µM (inactive) | > 100 µM (inactive) | > 100 µM (inactive) | > 100 µM (inactive) | – | > 100 µM (inactive) | > 100 µM (inactive) | > 100 µM (inactive) | > 100 µM (inactive)
3 | NC(Cc1ccc(S(=O)(=O)O)cc1)C(=O)NC(Cc1ccc(S(=O)(=O)O)cc1)C(=O)NC(Cc1ccc(S(=O)(=O)O)cc1)C(=O)O (stereo unspecified) | > 100 µM (inactive) | > 100 µM (inactive) | > 100 µM (inactive) | > 100 µM | > 100 µM (inactive) | > 100 µM (inactive) | > 100 µM (inactive) | > 100 µM (inactive) | > 100 µM (inactive) | > 100 µM (inactive) | > 100 µM (inactive) | > 100 µM (inactive) | > 100 µM (inactive) | > 100 µM (inactive) | > 100 µM (inactive) | > 100 µM (inactive) | > 100 µM (inactive) | > 100 µM (inactive) | –
4 | COC1=CC(=O)c2c(CCNC(=O)OCc3ccccc3)n[nH]c2C1=O | – | – | 18.8 µM (inactive) | 12.6 µM | 16 µM (inactive) | 10 µM (inactive) | 4.54 µM (inactive) | 17.3 µM (inactive) | 2.16 µM (inactive) | 1.76 µM (inactive) | 4.01 µM (inactive) | 7.78 µM (inactive) | 18.1 µM (inactive) | 23.1 µM (inactive) | 13 µM (inactive) | 13.8 µM (inactive) | 13.2 µM (inactive) | 14.9 µM (inactive) | –
5 | O=C(/C=C/c1ccc(-c2ccccc2[N+](=O)[O-])o1)NCc1ccc(C(=O)NCCc2ccccc2)cc1 | > 100 µM (inactive) | – | > 100 µM (inactive) | > 100 µM | > 100 µM (inactive) | > 100 µM (inactive) | > 100 µM (inactive) | > 100 µM (inactive) | 3.92 µM (inactive) | > 100 µM (inactive) | > 100 µM (inactive) | > 100 µM (inactive) | > 100 µM (inactive) | > 100 µM (inactive) | > 100 µM (inactive) | > 100 µM (inactive) | > 100 µM (inactive) | 46.7 µM (inactive) | > 100 µM (inactive)
6 | C/C=C/C=C\C1OC(O)([C@H](CC)C(=O)NC/C=C/C=C(\C)[C@H](OC)C(C)C2OC(\C=C/C=C/C=C(\C)C(=O)c3c(O)ccn(C)c3=O)[C@H](O)[C@@H]2O)C(O)C(O)C1(C)C (stereo partly specified) | > 100 µM (inactive) | 38.4 µM (inactive) | > 100 µM (inactive) | > 100 µM | 73.5 µM (inactive) | > 100 µM (inactive) | 69.5 µM (inactive) | > 100 µM (inactive) | > 100 µM (inactive) | – | > 100 µM (inactive) | > 100 µM (inactive) | > 100 µM (inactive) | 82.8 µM (inactive) | 20.3 µM (inactive) | 75.3 µM (inactive) | > 100 µM (inactive) | > 100 µM (inactive) | > 100 µM (inactive)
7 | O=[N+]([O-])c1cccc2nnccc12 | 34.9 µM (inactive) | – | 13.3 µM (inactive) | 12.9 µM | 23.9 µM (inactive) | 23.7 µM (inactive) | – | > 10 µM (inactive) | 15.7 µM (inactive) | 11.9 µM (inactive) | 23.3 µM (inactive) | 3.71 µM (inactive) | 63.5 µM (inactive) | 31.9 µM (inactive) | 22 µM (inactive) | 26.1 µM (inactive) | 41.6 µM (inactive) | 16.5 µM (inactive) | 93.3 µM (inactive)
8 | CCCCc1c(OC)cc(O)c2c1C(=O)c1[nH]c(C(=O)O)c(O)c(=O)c1C2=O | 13.2 µM (inactive) | 42.1 µM (inactive) | 22 µM (inactive) | 23.8 µM | > 100 µM (inactive) | 29.4 µM (inactive) | 4.01 µM (inactive) | 0.847 µM (active) | 5.56 µM (inactive) | – | 2.81 µM (inactive) | 2.12 µM (inactive) | 4.9 µM (inactive) | 2.27 µM (inactive) | > 100 µM (inactive) | 6.08 µM (inactive) | 2.95 µM (inactive) | 10.4 µM (inactive) | 4.35 µM (inactive)
